Measurements: patent publication US20250340671A1, “METHODS AND PHARMACEUTICAL COMPOSITIONS FOR REDUCING THE NEURO[…] OF COCAINE” (University of Cincinnati, priority 2022, published 2025)

Tests used:
[1] = in vivo; cited from earlier work
[2] = system: lever-pressing behavior in rats; test: Single-dose reinstatement (SDR) of lever-pressing after 12 μmol/kg cocaine; type: in vivo, Male Sprague-Dawley rats; settings: for average difference in latency between vehicle and SCH23390: 10 nmol/kg SCH23390 alone, absence of h2E2; for mean latency of lever-pressing behavior: 0 nmol/kg gave 17.11, FIG. 6; for mean duration of lever-pressing: 0 nmol/kg gave 35.44, FIG. 7

## CN1CCc2cc(Cl)c(O)cc2[C@@H](c2ccccc2)C1 [SCH23390]
[1]
  t-max: approximately 30 min
[2]; FIG. 9
  average difference in latency between vehicle and SCH23390: about 2.81 minutes
[2]; FIG. 9, listed as SCH233390
  average difference in latency between vehicle and SCH23390: 2.81 min
[2]; 10 nmol/kg SCH23390 before SDR, in the presence of h2E2 (4 separate days from day seven after h2E2), FIG. 10
  average duration of lever-pressing activity: 9.28 min
[2]; 10 nmol/kg SCH23390 before SDR, in the presence of h2E2 (from seven days after 360 umol/kg h2E2), FIG. 9
  average decrease in latency versus the prior day (h2E2 alone): 2.56 min
[2]; SCH23390 alone 10 nmol/kg IV before 12 μmol/kg cocaine SDR
  mean latency of lever-pressing behavior: 12.17
[2]; SCH23390 alone 10 nmol/kg
  mean duration of lever-pressing: 23.16
[2]; SCH23390 alone 20 nmol/kg IV before 12 μmol/kg cocaine SDR
  mean latency of lever-pressing behavior: 5.17
[2]; SCH23390 alone 20 nmol/kg
  mean duration of lever-pressing: 5.43
[2]; SCH23390 alone 30 nmol/kg IV before 12 μmol/kg cocaine SDR
  mean latency of lever-pressing behavior: 1.72
[2]; SCH23390 alone 30 nmol/kg
  mean duration of lever-pressing: 2.05
[2]; days with 10 nmol/kg SCH23390 in the presence of h2E2, FIG. 8
  average latency: 9.93 min
